As usually defined, the IC50 is the concentration that inhibits the measured activity by half. Usually viability stands for the share of living cells, or the viability signal relative to a control. As usually defined, the remaining activity is the activity still measured, relative to the control.

Here are results for five compounds from paper PMC7663809, “Dual-Inhibitors of N-Myc and AURKA as Potential Therapy for Neuroendocrine Prostate Cancer” (International Journal of Molecular Sciences, 2020).

One data set relates to LNCaP cells. The data set can be described thus: Cell viability assay, LNCaP. The note with it: for Growth inhibition of LNCaP cells / IC50: serial dilution; for Growth inhibition of LNCaP cells: up to 10 µM; for Inhibitory activity in LNCaP: 1 μM; for Inhibitory activity in LNCaP / viability at 5 µM / viability at 10 µM / IC50: 72 h; for viability at 5 µM / viability at 10 µM / IC50: Homo sapiens, LNCaP; for viability at 5 µM / viability at 10 µM: read-out: % activation (cell viability) in LNCaP; for IC50: read-out: IC50, growth inhibition of LNCaP cells. The format is cell-based, human. On the procedure:
LNCaP were plated at 5000 cells per well in RPMI 1640 containing 5% CSS in a 96-well plate, treated with test compounds (0–25 μM) for 72 h. Cell density was measured using the PrestoBlue assay according to the manufacturer’s protocol. The percentage of cell survival was normalized to the cell density of control wells treated by vehicle. […]

A further data set concerns 22Rv1 cells. The data set can be described thus: Cell viability assay, 22Rv1. Format: cell-based, human. Conditions: for Growth inhibition of 22Rv1 cells / IC50: serial dilution; for Growth inhibition of 22Rv1 cells: up to 10 µM; for Inhibitory activity in 22Rv1: 1 μM; for Inhibitory activity in 22Rv1 / viability at 5 µM / viability at 10 µM / IC50: 72 h; for viability at 5 µM / viability at 10 µM / IC50: Homo sapiens, 22Rv1; for viability at 5 µM / viability at 10 µM: read-out: % activation (cell viability) in 22Rv1; for IC50: read-out: IC50, growth inhibition of 22Rv1 cells. As to the method: (§1) NCI-H660 cells were purchased from the American Type Culture Collection (ATCC) and grown in RPMI medium supplemented with 5% fetal bovine serum (FBS), 1% Isulin-Transferrin-Selenium (Thermo Fisher, 41400-045, Waltham, MA, USA), 10 nM b-estradiol (Sigma, E8875; Darmstadt, Germany), 10 nM hydrocortisone (Sigma H0888), and 1% matrigel. HO15.19 cells were a generous gift from John Sidivy at Brown University and were cultured in Dulbecco’s modified Eagle’s medium (DMEM) (ATCC 30–2002) supplemented with 10% FBS. LNCaP-N-Myc and 22rv1-N-Myc cells were a generous gift from David Rickman at Weill Cornell Medicine (New York, NY, USA) and were cultured in RPMI supplemented with 10% FBS.
(§2) Viability of N-Myc -overexpressing LNCaP and 22Rv1 was done with 5000 cells per well in RPMI supplemented with 10% FBS and read with Cell Titer Glo (Promega, cat# G7572; Madison, WI, USA) according to the manufacturer’s protocol. Eagle’s minimum essential medium (EMEM) supplemented with 10% FBS was used for the Myc-negative HO15.19 cells at 2000 cells per well and 20,000 neuroendocrine NCI-H660 cells were plated in RPMI supplemented with 5% FBS, 1% Isulin-Transferrin-Selenium (Thermo Fisher, 41400-045), 10 nM b-estradiol (Sigma, E8875), 10 nM hydrocortisone (Sigma H0888), and 1% matrigel. All cells were incubated for 72 h with the compounds.

For a further data set, the system named is HO15.19 cells. The data set can be described thus: Growth / viability in Myc negative cell line HO15.19. The format is cell-based. As to the method: as §1
Viability of N-Myc -overexpressing LNCaP and 22Rv1 was done with 5000 cells per well in RPMI supplemented with 10% FBS and read with Cell Titer Glo (Promega, cat# G7572; Madison, WI, USA) according to the manufacturer’s protocol. Eagle’s minimum essential medium (EMEM) supplemented with 10% FBS was used for the Myc-negative HO15.19 cells at 2000 cells per well and 20,000 neuroendocrine NCI-H660 cells were plated in RPMI supplemented with 5% FBS, 1% Isulin-Transferrin-Selenium (Thermo Fisher, 41400-045), 10 nM b-estradiol (Sigma, E8875), 10 nM hydrocortisone (Sigma H0888), and 1% matrigel. […]

The test system of the next data set is Myc-Max. The data set can be described thus: Myc-Max luciferase transcription inhibition (Cignal Myc reporter) assay in LNCaP cells. Format: cell-based. Conditions: Homo sapiens, 24 h, 0-25 μM, 1 day. As to the method:
The eGFP Myc transcriptional activity was assayed as previously described. Briefly, cell transfection was performed using TransIT-2020 transfection reagents according to the manufacturer’s instructions. LNCaP cells were plated at 10,000 cells per well and treated for 1 day with the indicated concentration of compound with increasing concentrations (0−25 μM) of compounds for screening and measuring IC50. Myc reporter activity was measured using the Cignal Myc Reporter Assay Kit from Qiagen (#336841; Hilden, Germany) according to the manufacturer’s instructions.

In another data set the target is N-Myc-Max DBD (Homo sapiens, UniProt P04198+P61244). The data set can be described thus: Biolayer interferometry: binding of N-Myc-Max complex to biotinylated E-box DNA. Conditions: 100 µM and 200 µM. As to the method: The direct interaction between biotinylated E-box oligo immobilized on a streptavidin biosensor and a purified N-Myc-Max complex (0.05 mg/ml) was quantified by BLI using OctetRED (ForteBio). The DNA was first bound to the super-streptavidin sensors. The sensors were next moved into wells containing the reaction buffer (20 mM Tris pH 8, 150 mM NaCl, 5% glycerol, 0.2 mM TCEP, 5% dimethylsulfoxide) for measuring the baseline and next into the N-Myc-Max complex alone or in presence of the tested inhibitors to study the association of the complex to the DNA.

The test system of a further data set is NCI-H660 cells. The data set can be described thus: Cell viability assay, NCI-H660. The format is cell-based. The note with it: 72 h; for Inhibitory activity in NCI-H660: 1 μM; for viability at 5 µM / viability at 10 µM: NCI-H660, read-out: % activation (cell viability) in NCI-H660. On the procedure: as §1, §2
For a further data set, the target named is T1, AURKA (Homo sapiens, UniProt O14965).
T1 construct: 10 ng Aurora-A catalytic domain
T1 sequence (O14965 133-383 limits assumed): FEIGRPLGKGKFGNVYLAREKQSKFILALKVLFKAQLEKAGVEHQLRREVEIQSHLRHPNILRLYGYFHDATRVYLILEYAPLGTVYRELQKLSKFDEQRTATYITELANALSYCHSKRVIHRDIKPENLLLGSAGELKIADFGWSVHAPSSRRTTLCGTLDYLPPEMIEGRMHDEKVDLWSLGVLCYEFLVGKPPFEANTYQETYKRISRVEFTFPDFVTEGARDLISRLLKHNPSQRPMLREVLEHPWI
The data set can be described thus: Aurora A kinase activity assay (ADP-Glo). The format is biochemical. Conditions: read-out: AURKA enzyme activity remaining. As to the method: AURKA kinase assays were performed using the ADP-Glo Kinase assay (Promega) according to the manufacturer protocol. Measurement of Aurora-A activity was carried out using reactions containing (per well):10 ng Aurora-A catalytic domain, 50 uM ATP, and 0.5 myelin basic protein (MBP), in 5% dimethyl sulfoxide (DMSO). Reactions were incubated at room temperature for 60 min, and luminescence data (integration time: 0.5–1 s) was recorded on a Tecan M200 Pro reader (Männedorf, Switzerland).
A general note: ADP-Glo first removes unused ATP, then detects ADP through luciferase.

N-Myc-Max DBD, sequence (P04198 377-464): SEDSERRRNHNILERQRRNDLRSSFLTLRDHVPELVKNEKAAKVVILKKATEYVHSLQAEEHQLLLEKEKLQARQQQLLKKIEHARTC
N-Myc-Max DBD, sequence (P61244 22-102): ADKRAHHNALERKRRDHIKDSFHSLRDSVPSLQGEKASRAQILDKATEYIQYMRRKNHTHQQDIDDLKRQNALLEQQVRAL

As to `CCc1ccc(/C=C2/SC(=S)NC2=O)cc1` [10058-F4, reference compound], the “Growth inhibition of LNCaP cells” value with LNCaP cells is “ineffective”. Moreover, the “Growth inhibition of 22Rv1 cells” value with 22Rv1 cells is listed as “ineffective”.
On to `O=[N+]([O-])c1ccc(Nc2ccccc2-c2ccccc2)c2nonc12` [10074-G5, reference compound], for which the “Growth inhibition of LNCaP cells” value in the data set with LNCaP cells is given as “ineffective”. Besides, the “Growth inhibition of 22Rv1 cells” value in the data set with 22Rv1 cells is listed as “ineffective”.
`O=C(Nc1ccc(Nc2nccc(Nc3cc(C4CCCC4)[nH]n3)n2)cc1)Nc1cccc(C(F)(F)F)c1` [CD532, reference compound]: the “Cytotoxicity in N-Myc negative cell line HO15.19” value with HO15.19 cells (10, 5 and 1 µM, 72 h) is on record as “cytotoxicity”.
`N#Cc1ccc(NNC(=O)c2ccc(C(F)(F)F)cc2)c(C(F)(F)F)c1` [compound 70551, N′-[4-cyano-2-(trifluoromethyl)phenyl]-4-(trifluoromethyl)benzohydrazide]: in the data set on Myc-Max, the IC50 came to 4 µM. Besides, the “Disruption of DNA binding to N-Myc-Max DBD (BLI)” value at N-Myc-Max DBD is “weak disruption”. In the data set with NCI-H660 cells, the “Inhibitory activity in NCI-H660” value is “no significant inhibitory activity”, the viability at 5 µM is more than 75% and the viability at 10 µM worked out at 49.2%. Further, in the data set on LNCaP cells, the “Inhibitory activity in LNCaP” value is “no significant inhibitory activity”, the viability at 5 µM was more than 75%, the viability at 10 µM stood at 49.7% and the IC50 was found to be 11.1 µM. In the data set with 22Rv1 cells, the “Inhibitory activity in 22Rv1” value is “no significant inhibitory activity”, the viability at 5 µM was more than 75%, the viability at 10 µM came to 78.8% and the IC50 worked out at 15.6 µM. In addition, in the data set with HO15.19 cells (20 μM, 120 h), the “Toxicity in HO15.19” value was “slight toxicity”. The “Effect on HO15.19 growth” value with HO15.19 cells (N-Myc null cell line, 120 h, below 20 μM) is reported as “minimal effect”.
Compound `N#Cc1ccc(NNC(=O)c2ccc(Nc3nccc(Nc4cc(C5CCCC5)n[nH]4)n3)cc2)c(C(F)(F)F)c1` [compound 70812] had an IC50 in the data set on Myc-Max of 2 µM. Further, the remaining activity at 5 µM on AURKA (5 µM compound) was 21.1%. At AURKA (10 µM compound), the remaining activity at 10 µM worked out at 19.9%. The remaining activity at 15 µM on AURKA (15 µM compound) was 18.7%. In addition, at AURKA (30 µM compound), the remaining activity at 30 µM was 21.4%. The “Disruption of DNA binding to N-Myc-Max DBD (BLI)” value on N-Myc-Max DBD is reported as “effectively disrupt”. In the data set on NCI-H660 cells, the “Inhibitory activity in NCI-H660” value is “No discernable inhibitory activity”, the viability at 5 µM amounted to 82.9% and the viability at 10 µM was 52.1%. In the data set with LNCaP cells, the “Inhibitory activity in LNCaP” value is on record as “No discernable inhibitory activity”, the viability at 5 µM is 32.5%, the viability at 10 µM is 1.4% and the IC50 came out at 3.05 µM. For the same compound, in the data set with 22Rv1 cells, the “Inhibitory activity in 22Rv1” value was “No discernable inhibitory activity”, the viability at 5 µM came to 66.5%, the viability at 10 µM stood at 16.6% and the IC50 turned out to be 3.71 µM.
